Target: human GLP-1R (Homo sapiens, UniProt P43220, G168S)
Assay: CHO GLP-1R Clone H6—Assay 1: HTRF cAMP cell-based functional agonist assay (high GLP-1R density)
Conditions: for EC50: read-out: Assay 1 EC50, CHO GLP-1R Clone H6, cAMP HTRF, geometric mean; for Emax: read-out: Assay 1 Emax (%), CHO GLP-1R Clone H6
[1] = relative to saturating concentration of full agonist GLP-1 (1 μM), arithmetic mean

Sequence of human GLP-1R (P43220 24-463 G168S limits assumed): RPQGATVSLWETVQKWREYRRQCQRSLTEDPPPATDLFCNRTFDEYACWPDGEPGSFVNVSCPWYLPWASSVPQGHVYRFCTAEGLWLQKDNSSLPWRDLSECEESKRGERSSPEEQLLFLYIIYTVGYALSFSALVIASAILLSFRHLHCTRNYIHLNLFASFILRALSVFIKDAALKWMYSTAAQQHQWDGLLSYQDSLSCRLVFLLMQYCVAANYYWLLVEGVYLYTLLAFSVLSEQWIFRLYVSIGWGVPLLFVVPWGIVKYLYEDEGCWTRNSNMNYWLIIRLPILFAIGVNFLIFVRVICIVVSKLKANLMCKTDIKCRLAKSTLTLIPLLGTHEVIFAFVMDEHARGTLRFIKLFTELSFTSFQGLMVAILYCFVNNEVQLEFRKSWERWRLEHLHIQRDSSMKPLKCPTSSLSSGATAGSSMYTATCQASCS

EC50 [nM] | Emax [1] [%] | Compound | Assay 1 Emax (%) (CHO GLP-1R Clone H6, relative to saturating concentration of full agonist GLP-1 (1 μM), arithmetic mean)
110 | 74 | Cc1cc(Cn2c(CN3CCC(c4cccc(OCc5ccc(Cl)cc5F)n4)CC3)nc3ccc(C(=O)O)cc32)no1 [Example 11A-35, 2-[(4-{6-[(4-chloro-2-fluorobenzyl)oxy]pyridin-2-yl}piperidin-1-yl)methyl]-1-[(5-methyl-1,2-oxazol-3-yl)methyl]-1H-benzimidazole-6-carboxylic acid] | –
> 17000 | 100 | Cn1c(CN2CCC(c3cccc(OCc4cccc(C#N)c4)n3)CC2)nc2ccc(C(=O)O)cc21 [Example 9A-12, 2-[(4-{6-[(3-cyanobenzyl)oxy]pyridin-2-yl}piperidin-1-yl)methyl]-1-methyl-1H-benzimidazole-6-carboxylic acid] | –
> 10000 | 85 | Cn1cnc(CCn2c(CN3CCC(c4cccc(OCc5ccc(Cl)cc5F)n4)CC3)nc3ccc(C(=O)O)cc32)c1 [Example 11A-01, 2-[(4-{6-[(4-chloro-2-fluorobenzyl)oxy]pyridin-2-yl}piperidin-1-yl)methyl]-1-[2-(1-methyl-1H-imidazol-4-yl)ethyl]-1H-benzimidazole-6-carboxylic acid] | –
200 | 79 | Cn1c(CN2CCC(c3cccc(OCc4ccc(F)cc4F)n3)CC2)nc2ccc(C(=O)O)cc21 [Example 9A-03, 2-[(4-{6-[(2,4-difluorobenzyl)oxy]pyridin-2-yl}piperidin-1-yl)methyl]-1-methyl-1H-benzimidazole-6-carboxylic acid] | –
3.2 | 68 | CC1(Cn2c(CN3CCC(c4cccc(OCc5ccc(Cl)cc5F)n4)CC3)nc3ccc(C(=O)O)cc32)CCO1 (stereo not shown) [Example 10A-53] | –
– | – | 2-[(4-{6-[(4-chloro-2-fluorobenzyl)oxy]pyridin-2-yl}piperidin-1-yl)methyl]-1-(tetrahydro-2H-pyran-2-ylmethyl)-1H-benzimidazole-6-carboxylic acid [Example 11A-48] | 71
250 | 64 | COCCn1c(CN2CCN(c3cccc(OCc4ccc(Cl)cc4F)n3)C[C@@H]2C2CC2)nc2ccc(C(=O)O)cc21 [Example 12A-04, 2-{[(2S)-4-{6-[(4-chloro-2-fluorobenzyl)oxy]pyridin-2-yl}-2-cyclopropylpiperazin-1-yl]methyl}-1-(2-methoxyethyl)-1H-benzimidazole-6-carboxylic acid] | –
> 20000 | – | COCCN1CCC(Cn2c(CN3CCC(c4cccc(OCc5ccc(Cl)cc5F)n4)CC3)nc3ccc(C(=O)O)cc32)CC1 [Example 11A-12, 2-[(4-{6-[(4-chloro-2-fluorobenzyl)oxy]pyridin-2-yl}piperidin-1-yl)methyl]-1-{[1-(2-methoxyethyl)piperidin-4-yl]methyl}-1H-benzimidazole-6-carboxylic acid] | –
1100 | 81 | Cc1cc(Cn2c(CN3CCC(c4cccc(OCc5ccc(Cl)cc5F)n4)CC3)nc3ccc(C(=O)O)cc32)[nH]n1 [Example 11A-58, 2-[(4-{6-[(4-chloro-2-fluorobenzyl)oxy]pyridin-2-yl}piperidin-1-yl)methyl]-1-[(3-methyl-1H-pyrazol-5-yl)methyl]-1H-benzimidazole-6-carboxylic acid] | –
550 | 71 | Cn1cnc(Cn2c(CN3CCC(c4cccc(OCc5ccc(Cl)cc5F)n4)CC3)nc3ccc(C(=O)O)cc32)c1 [Example 10A-30] | –
2200 | 87 | COCc1cc(Cn2c(CN3CCC(c4cccc(OCc5ccc(Cl)cc5F)n4)CC3)nc3ccc(C(=O)O)cc32)[nH]n1 [Example 11A-62, 2-[(4-{6-[(4-chloro-2-fluorobenzyl)oxy]pyridin-2-yl}piperidin-1-yl)methyl]-1-{[3-(methoxymethyl)-1H-pyrazol-5-yl]methyl}-1H-benzimidazole-6-carboxylic acid] | –
600 | 70 | COCCn1c(CN2CCN(c3cccc(OCc4ccc(Cl)cc4F)n3)CC23CC3)nc2ccc(C(=O)O)cc21 [Example 12A-03, 2-[(7-{6-[(4-chloro-2-fluorobenzyl)oxy]pyridin-2-yl}-4,7-diazaspiro[2.5]oct-4-yl)methyl]-1-(2-methoxyethyl)-1H-benzimidazole-6-carboxylic acid] | –
290 | 74 | COC[C@H](C)n1c(CN2CCC(c3cccc(OCc4ccc(Cl)cc4F)n3)CC2)nc2ccc(C(=O)O)cc21 [Example 11A-45, 2-[(4-{6-[(4-chloro-2-fluorobenzyl)oxy]pyridin-2-yl}piperidin-1-yl)methyl]-1-[(2S)-1-methoxypropan-2-yl]-1H-benzimidazole-6-carboxylic acid] | –
190 | 80 | Cn1cc(Cn2c(CN3CCC(c4cccc(OCc5ccc(Cl)cc5F)n4)CC3)nc3ccc(C(=O)O)cc32)cn1 [Example 11A-43, 2-[(4-{6-[(4-chloro-2-fluorobenzyl)oxy]pyridin-2-yl}piperidin-1-yl)methyl]-1-[(1-methyl-1H-pyrazol-4-yl)methyl]-1H-benzimidazole-6-carboxylic acid] | –
4500 | 48 | Cn1c(CN2CCC(c3cccc(OCc4ccccc4OC(F)(F)F)n3)CC2)nc2ccc(C(=O)O)cc21 [Example 9A-10, 1-methyl-2-{[4-(6-{[2-(trifluoromethoxy)benzyl]oxy}pyridin-2-yl)piperidin-1-yl]methyl}-1H-benzimidazole-6-carboxylic acid] | –
130 | 72 | Cn1ccnc1Cn1c(CN2CCC(c3cccc(OCc4ccc(Cl)cc4F)n3)CC2)nc2ccc(C(=O)O)cc21 [Example 10A-38] | –
> 16000 | 100 | CCN1CCC(Cn2c(CN3CCC(c4cccc(OCc5ccc(Cl)cc5F)n4)CC3)nc3ccc(C(=O)O)cc32)C1 (stereo not shown) [Example 11A-03, 2-[(4-{6-[(4-chloro-2-fluorobenzyl)oxy]pyridin-2-yl}piperidin-1-yl)methyl]-1-[(1-ethylpyrrolidin-3-yl)methyl]-1H-benzimidazole-6-carboxylic acid] | –
130 | 80 | CCn1ccnc1Cn1c(CN2CCC(c3cccc(OCc4ccc(Cl)cc4F)n3)CC2)nc2ccc(C(=O)O)cc21 [Example 11A-39, 2-[(4-{6-[(4-chloro-2-fluorobenzyl)oxy]pyridin-2-yl}piperidin-1-yl)methyl]-1-[(1-ethyl-1H-imidazol-2-yl)methyl]-1H-benzimidazole-6-carboxylic acid] | –
1900 | 79 | Cc1ccc(Cn2c(CN3CCC(c4cccc(OCc5ccc(Cl)cc5F)n4)CC3)nc3ccc(C(=O)O)cc32)cn1 [Example 11A-61, 2-[(4-{6-[(4-chloro-2-fluorobenzyl)oxy]pyridin-2-yl}piperidin-1-yl)methyl]-1-[(6-methylpyridin-3-yl)methyl]-1H-benzimidazole-6-carboxylic acid] | –
170 | 68 | Cn1c(CN2CCC(c3cccc(OCc4ccc(C(F)(F)F)cc4)n3)CC2)nc2ccc(C(=O)O)cc21 [Example 9A-13, 1-methyl-2-{[4-(6-{[4-(trifluoromethyl)benzyl]oxy}pyridin-2-yl)piperidin-1-yl]methyl}-1H-benzimidazole-6-carboxylic acid] | –
300 | 66 | COC[C@@H](C)n1c(CN2CCC(c3cccc(OCc4ccc(Cl)cc4F)n3)CC2)nc2ccc(C(=O)O)cc21 [Example 11A-46, 2-[(4-{6-[(4-chloro-2-fluorobenzyl)oxy]pyridin-2-yl}piperidin-1-yl]methyl]-1-[(2R)-1-methoxypropan-2-yl]-1H-benzimidazole-6-carboxylic acid] | –

From patent publication US10208019B2, “GLP-1 receptor agonists and uses thereof” (Pfizer Inc., priority 2016, dated 2019)
